Series [1] can be described thus: Glutathione reactivity assay (HPLC time course). The method, then: To evaluate the reactivity toward off-target thiols, the acrylamide, bromoacetamide, and chloroacetamide covalent peptides were exposed to glutathione (10 equiv) in an HPLC time course assay over 96 h (Figure 4A). Here, a set of nonfluorescent peptides (2b, 3b, and 4b) were synthesized with an N-terminal tryptophan for quantification through absorbance measurements. Glutathione is the most abundant thiol in human cells,[40] and time point measurements were obtained by quenching reactions with cold acetonitrile containing TFA (0.1%) and 5-carboxyfluorescein as an internal standard.
Covalent peptides (100 μM) were diluted from 10 mM DMSO stock solutions (1% final DMSO content) and incubated in buffer (500 μL total volume; 50 mM Tris, 200 mM NaCl) with glutathione (10 equiv, 1 mM) at 37 °C. To quench the reaction, 10 μL of the reaction mixture was added to 100 μL of cold acetonitrile containing 0.1% TFA [v/v] and 10 μM fluorescein, included as an internal standard. Reaction mixtures were first analyzed by LCMS after 1 h of incubation to assign the glutathione adduct peak by comparison to mixtures quenched immediately following peptide addition. […] The AUC of the reacted covalent peptide was normalized to the AUC of the fluorescein standard. These values were plotted and fitted with nonlinear regression using GraphPad Prism software.

Series [2] deals with T1, GST-E6 (GST-tagged HPV16 E6 protein) (Human papillomavirus type 16, UniProt P03126).
T1 construct: host or cells: E. coli BL21
In words: Competitive fluorescence polarization assay against a fluorescent E6 peptide ligand. The class given is binding, Human Papillomavirus (HPV-16). The protocol:
Next, covalent inhibition was evaluated by using a competitive FP assay. Recombinant GST-E6 was pre-incubated with a fluorescently labeled ligand for 30 min before addition of varying concentrations of the non-fluorescent covalent peptides (Figure 4B). Fluorophore polarization is greatest when the ligand is bound to its target, and consequently, a displacement of the ligand by the covalent peptide results in a decrease in polarization.[41],[42] The formation of a covalent bond between the peptide inhibitor and the C58 residue within E6 is expected to occur more slowly than noncovalent binding, permitting characterization of the affinity of the peptides 2b, 3b, and 4b.[41] […]
For noncompetitive FP experiments, varying concentrations of GST-E6 protein (38 μM; 10 point 2-fold serial dilution) were incubated with 30 nM fluorescently labeled peptides in buffer (10 μL total volume; 50 mM Tris, 200 mM NaCl, 1 mM DTT, 0.1% [v/v] Trition X-100) in black 384-well plates. […] Following incubation, FP at equilibrium was measured on a Tecan M1000 microplate reader (ex = 470 nm, em = 525; gain optimized, 200 flashes, 300 ms settle time, G-factor reference value 30 mP). Measured polarizations were fitted to a sigmoidal dose–response curve using GraphPad Prism software to generate KD values.
(Polarisation of emitted light reports the rotation of a fluorescent probe.)

Series [3] deals with T1, GST-E6 (GST-tagged HPV16 E6 protein). Description: Noncompetitive fluorescence polarization (FP) binding assay. The arrangement: species or system Human Papillomavirus (HPV-16). The protocol:
An N-terminal carboxyfluorescein was included for FP analysis of binding affinity for both the natural backbone and the stapled peptides.
For noncompetitive FP experiments, varying concentrations of GST-E6 protein (38 μM; 10 point 2-fold serial dilution) were incubated with 30 nM fluorescently labeled peptides in buffer (10 μL total volume; 50 mM Tris, 200 mM NaCl, 1 mM DTT, 0.1% [v/v] Trition X-100) in black 384-well plates. For competitive FP experiments, 100 nM GST-E6 was incubated with 30 nM fluorescently labeled noncovalent peptide and varying concentrations (20 μM; 3-fold serial dilution) of covalent peptide in buffer (20 μL) with a final DMSO content of 0.5% [v/v]. Negative control (polarization reference; 30 nM fluorescent peptide, no protein) and blank reference (buffer alone) were included in triplicate for G-factor calibration. Sample plates were centrifuged (1 min, 500g) and incubated for 30 min at RT. Following incubation, FP at equilibrium was measured on a Tecan M1000 microplate reader (ex = 470 nm, em = 525; gain optimized, 200 flashes, 300 ms settle time, G-factor reference value 30 mP). Measured polarizations were fitted to a sigmoidal dose–response curve using GraphPad Prism software to generate KD values.

For series [4], the target named is bovine α-chymotrypsin (Bos taurus, UniProt P00766). In words: in vitro. To be noted: 50 μM peptide, 50 nM bovine α-chymotrypsin, pH 7.5, room temp, HPLC. The method, then:
Chymotrypsin was chosen due to its substrate selectivity for peptides containing hydrophobic side chains, including leucine, making the LxxLL motif a well-suited substrate for proteolytic cleavage by this protease.[54]
For each time point, a 50 μL aliquot was removed from the reaction mixture and quenched with 40 μL of 0.5% [v/v] trifluoroacetic acid in acetonitrile. Quenched samples were subsequently analyzed by analytical reverse-phase HPLC, and the remaining undigested peptide was quantified by integration of AUC. A plot of percent peptide remaining vs time was fit to a one-phase exponential decay to calculate half-life using GraphPad Prism software.

Series [5] addresses T2, Glutathione S-transferase (GST) tagged HPV-16 E6 (Human papillomavirus type 16 (HPV-16), UniProt P03126 1-158).
T2 construct: Oncoprotein E6 of human papillomavirus type 16; GST fusion printed as 47 kDa; also called GST-E6; E6-GST; source: E. coli BL21, purified (glutathione agarose)
In words: fluorescence polarisation; GST-E6 titrated (from 38 μM, 10 point 2-fold serial dilution) against 30 nM fluorescent peptide; 50 mM Tris, 200 mM NaCl, 1 mM DTT, 0.1% Triton X-100; 30 min at RT; sigmoidal dose-response fit. To be noted: both partners purified.

The target in series [6] is T2, Glutathione S-transferase (GST) tagged …. Description: fluorescence polarisation. To be noted: both partners purified.

“And” between values parts separate entries of the source, which are not always exact repeats. Equal values may be shown once. Read-outs that look alike come from different tables or passages of the source. Where a SMILES comes first, the peptide text is derived from it. Bridges are numbered along the chain shown (N, C = ends). Where no end group is shown, it is not given here. [ ]: non-standard residue; d: D form. The star is where a group is joined. 5FAM = O=C1OC2(c3ccc(O)cc3Oc3cc(O)ccc32)c2ccc(C(=O)*)cc21; R8 = C=CCCCCCC[C@@](C)(N)C(=O)O; S5 = C=CCCC[C@](C)(N)C(=O)O; Dap = NC[C@H](N)C(=O)O; Acryloyl = C=CC(=O)*; ClAc = O=C(CCl)*; βAla = NCCC(=O)O Some results are limits rather than exact numbers.

T1 sequence (P03126 whole entry): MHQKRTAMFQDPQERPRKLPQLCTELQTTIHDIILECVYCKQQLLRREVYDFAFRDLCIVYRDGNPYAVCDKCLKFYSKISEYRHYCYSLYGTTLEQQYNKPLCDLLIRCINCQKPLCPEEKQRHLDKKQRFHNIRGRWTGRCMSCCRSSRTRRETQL
T2 sequence (P03126 whole entry, the tested form may be a part): as the sequence (P03126 whole entry) above

With `C=CC(=O)NC[C@H](NC(=O)[C@H](CC(C)C)NC(=O)[C@H](CC(C)C)NC(=O)[C@H](CCC(=O)O)NC(=O)[C@H](CCC(N)=O)NC(=O)[C@H](CC(C)C)NC(=O)[C@@H](NC(=O)[C@H](CC(C)C)NC(=O)[C@H](CCC(=O)O)NC(=O)[C@H](C)NC(=O)[C@H](C)NC(=O)[C@H](C)NC(=O)CCNC(=O)[C@H](Cc1c[nH]c2ccccc12)NC(C)=O)[C@@H](C)O)C(N)=O` [2b] (Ac-W[βAla]AAAELTLQELL[Dap](Acryloyl)-NH2), the “t1/2 of reaction with glutathione” value in series [1] came out at 10.3 h.

For `CC(=O)N[C@@H](Cc1c[nH]c2ccccc12)C(=O)NCCC(=O)N[C@@H](C)C(=O)N[C@@H](C)C(=O)N[C@@H](C)C(=O)N[C@@H](CCC(=O)O)C(=O)N[C@@H](CC(C)C)C(=O)N[C@H](C(=O)N[C@@H](CC(C)C)C(=O)N[C@@H](CCC(N)=O)C(=O)N[C@@H](CCC(=O)O)C(=O)N[C@@H](CC(C)C)C(=O)N[C@@H](CC(C)C)C(=O)N[C@@H](CNC(=O)CCl)C(N)=O)[C@@H](C)O` [4b] (Ac-W[βAla]AAAELTLQELL[Dap](ClAc)-NH2), a half-maximal response in series [2] (EC50) required 40 nM. Moreover, in series [1] (100 μM peptide, glutathione 10 equiv (1 mM), 50 mM Tris, 200 mM NaCl, 1% DMSO, 37 °C, up to 96 h, HPLC 280 nm, GSH adduct peak area, n = 3), the “t1/2 of reaction with glutathione” value was determined as 7.0 h. `CC(C)C[C@H](NC(=O)[C@H](CC(C)C)NC(=O)[C@H](CCC(=O)O)NC(=O)[C@H](CCC(N)=O)NC(=O)[C@H](CC(C)C)NC(=O)[C@@H](NC(=O)[C@]1(C)CCCC=CCCC[C@](C)(NC(=O)CCNC(=O)c2ccc3c(c2)C(=O)OC32c3ccc(O)cc3Oc3cc(O)ccc32)C(=O)N[C@@H](C)C(=O)N[C@@H](C)C(=O)N[C@@H](CCC(=O)O)C(=O)N1)[C@@H](C)O)C(=O)NCC(N)=O` [compound 5] ({5FAM-βAla}-[S5]AAE[S5]TLQELLG-NH2; staple 1-5): the Kd in series [3] was under 1000 nM. On the same count and under the same terms, with `CC(C)C[C@H](NC(=O)[C@H](CC(C)C)NC(=O)[C@]1(C)CCCC=CCCC[C@](C)(NC(=O)[C@H](CCC(=O)O)NC(=O)[C@H](C)NC(=O)[C@H](C)NC(=O)[C@H](C)NC(=O)CCNC(=O)c2ccc3c(c2)C(=O)OC32c3ccc(O)cc3Oc3cc(O)ccc32)C(=O)N[C@@H]([C@@H](C)O)C(=O)N[C@@H](CC(C)C)C(=O)N[C@@H](CCC(N)=O)C(=O)N1)C(=O)NCC(N)=O` [compound 7] ({5FAM-βAla}-AAAE[S5]TLQ[S5]LLG-NH2; staple 5-9) the figure was 3000 nM. As for `CC(C)C[C@H](NC(=O)[C@H](CC(C)C)NC(=O)[C@H](CCC(=O)O)NC(=O)[C@]1(C)CCCC=CCCCCCC[C@@](C)(NC(=O)CCNC(=O)c2ccc3c(c2)C(=O)OC32c3ccc(O)cc3Oc3cc(O)ccc32)C(=O)N[C@@H](C)C(=O)N[C@@H](C)C(=O)N[C@@H](CCC(=O)O)C(=O)N[C@@H](CC(C)C)C(=O)N[C@@H]([C@@H](C)O)C(=O)N[C@@H](CC(C)C)C(=O)N1)C(=O)NCC(N)=O` [compound 9] ({5FAM-βAla}-[R8]AAELTL[S5]ELLG-NH2; staple 1-8), the “degradation by chymotrypsin within 4 h” value in series [4] (4 h) is “no degradation”. Further, in series [4] (up to 16 h), the “degradation by chymotrypsin on continued incubation up to 16 h” value was “no significant degradation”. Besides, the equilibrium dissociation constant (Kd) in series [3] was 430 nM and < 1000 nM. For `CC(C)C[C@H](NC(=O)[C@H](CC(C)C)NC(=O)[C@]1(C)CCCC=CCCCCCC[C@@](C)(NC(=O)[C@H](C)NC(=O)CCNC(=O)c2ccc3c(c2)C(=O)OC32c3ccc(O)cc3Oc3cc(O)ccc32)C(=O)N[C@@H](C)C(=O)N[C@@H](CCC(=O)O)C(=O)N[C@@H](CC(C)C)C(=O)N[C@@H]([C@@H](C)O)C(=O)N[C@@H](CC(C)C)C(=O)N[C@@H](CCC(N)=O)C(=O)N1)C(=O)NCC(N)=O` [compound 10] ({5FAM-βAla}-A[R8]AELTLQ[S5]LLG-NH2; staple 2-9), the Kd in series [3] was over 38000 nM. In the case of {5FAM-βAla}-[S5]AAE[S5]TLQELLG (staple 1-5) [(i, i + 4) stapled peptide 5], binding in series [5] was put at a Kd of 590 nM. With {5FAM-βAla}-[R8]AAELTL[S5]ELLG (staple 1-8) [(i, i + 7) stapled peptide 9], binding in series [5] was put at a Kd of 431 nM. The same measure, in the same setting: the result for {5FAM-βAla}-AAAE[R8]TLQELL[S5] (staple 5-12) [(i, i + 7) stapled peptide 11] reads 7000 nM.

B1: (i, i + 4) stapled peptide 8 (peptide)
chain: {5FAM-βAla}-AAAELTL[S5]ELL[S5]-NH2
modifications: staple 8-12
SMILES: CC(C)C[C@@H]1NC(=O)[C@H](CCC(=O)O)NC(=O)[C@@](C)(NC(=O)[C@H](CC(C)C)NC(=O)[C@@H](NC(=O)[C@H](CC(C)C)NC(=O)[C@H](CCC(=O)O)NC(=O)[C@H](C)NC(=O)[C@H](C)NC(=O)[C@H](C)NC(=O)CCNC(=O)c2ccc3c(c2)C(=O)OC32c3ccc(O)cc3Oc3cc(O)ccc32)[C@@H](C)O)CCCC=CCCC[C@@](C)(C(N)=O)NC(=O)[C@H](CC(C)C)NC1=O
B1: the Kd in series [5] was determined as 8000 nM.

Regarding AAAELTLQELL-{Dap(bromoacetamide)} (not fully specified (N-terminus)) [nonfluorescent bromoacetamide covalent peptide 3b], the EC50 in series [6] was determined as 2410 nM.

B2: (i, i + 4) stapled peptide 7 (peptide)
chain: {5FAM-βAla}-AAAE[S5]TLQ[S5]LLG-NH2
modifications: staple 5-9
SMILES: CC(C)C[C@H](NC(=O)[C@H](CC(C)C)NC(=O)[C@]1(C)CCCC=CCCC[C@](C)(NC(=O)[C@H](CCC(=O)O)NC(=O)[C@H](C)NC(=O)[C@H](C)NC(=O)[C@H](C)NC(=O)CCNC(=O)c2ccc3c(c2)C(=O)OC32c3ccc(O)cc3Oc3cc(O)ccc32)C(=O)N[C@@H]([C@@H](C)O)C(=O)N[C@@H](CC(C)C)C(=O)N[C@@H](CCC(N)=O)C(=O)N1)C(=O)NCC(N)=O
For B2, in series [5], binding was put at a Kd of 3200 nM. In series [6], AAAELTLQELL-{Dap(acrylamide)} (not fully specified (N-terminus)) [nonfluorescent acrylamide covalent peptide 2b] had an EC50 of 2070 nM.

The EC50 is the concentration needed to bring the measured effect to its halfway point. Higher therefore signals a less potent agent. As usually defined, the Kd is the equilibrium constant for the complex coming apart.

(Values after PMC11934087, “Rational Design of Stapled Covalent Peptide Modifiers of Oncoprotein E6 from Human Papillomavirus” (ACS Chemical Biology, 2025).)
